“And” between values parts separate entries of the source, which are not always exact repeats. Equal entries are not always repeated.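 The compound was tested at five concentrations on cells cultured in 96-well plates, with a 48-hour exposure period. At the GI50, growth is halved. Definition used: TGI = concentration required for complete inhibition of growth.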
Tests used:
Experiment in all cases: NCI-60 cell line screen, 48 h
COLO 205 colon = tested on: COLO 205 colon
DMS 114 small cell lung = tested on: DMS 114 small cell lung
DMS 273 small cell lung = tested on: DMS 273 small cell lung
HOP-62 NSCLC = tested on: HOP-62 NSCLC
LXFL 529 NSCLC = tested on: LXFL 529 NSCLC
M14 melanoma = tested on: M14 melanoma
OVCAR-4 ovarian = tested on: OVCAR-4 ovarian
RXF 393 renal = tested on: RXF 393 renal
TK-10 renal = tested on: TK-10 renal
NCI/ADR-RES ovarian = tested on: NCI/ADR-RES ovarian

O=S(=O)(O)C(O)/C=C/c1ccccc1 (configuration not stated)
TGI (COLO 205 colon): > 100 µM | TGI (DMS 114 small cell lung): > 100 µM | TGI (DMS 273 small cell lung): > 100 µM | TGI (HOP-62 NSCLC): > 100 µM | TGI (LXFL 529 NSCLC): > 100 µM | TGI (M14 melanoma): > 100 µM | TGI (OVCAR-4 ovarian): > 100 µM | TGI (RXF 393 renal): > 100 µM | TGI (TK-10 renal): > 100 µM

Cc1cccc2c3ccc4c(c3n(C)c12)C(=O)C=CC4=O
TGI (COLO 205 colon): > 100 µM | TGI (DMS 114 small cell lung): > 100 µM | TGI (DMS 273 small cell lung): > 100 µM | TGI (HOP-62 NSCLC): > 100 µM | TGI (LXFL 529 NSCLC): > 100 µM | TGI (M14 melanoma): > 100 µM | TGI (OVCAR-4 ovarian): > 100 µM | TGI (TK-10 renal): > 100 µM

CN(C)c1ccc(/C=C2\C[N+](C)(C)C/C(=C\c3ccc(N(C)C)cc3)C2=O)cc1
TGI (COLO 205 colon): 8.36 µM | TGI (DMS 114 small cell lung): 26.1 µM | TGI (DMS 273 small cell lung): 18.5 µM | TGI (HOP-62 NSCLC): > 96.7 µM | TGI (LXFL 529 NSCLC): 20.4 µM | TGI (M14 melanoma): 74.8 µM | TGI (OVCAR-4 ovarian): > 100 µM | TGI (RXF 393 renal): > 77.7 µM | TGI (TK-10 renal): > 100 µM

CN1CCCNCCN(CCc2ccccn2)CCCN(C)CC1
TGI (COLO 205 colon): > 62.8 µM | TGI (DMS 114 small cell lung): > 58.2 µM | TGI (DMS 273 small cell lung): 81.5 µM | TGI (HOP-62 NSCLC): > 100 µM | TGI (LXFL 529 NSCLC): > 100 µM | TGI (M14 melanoma): > 100 µM | TGI (OVCAR-4 ovarian): > 100 µM | TGI (TK-10 renal): > 100 µM

C[C@]12CCC(=O)C=C1CC[C@@H]1C2CC[C@]2(C)NC(=O)C(C#N)CC12 (some centres not stated)
TGI (DMS 114 small cell lung): > 100 µM | TGI (DMS 273 small cell lung): > 100 µM | TGI (HOP-62 NSCLC): > 100 µM | TGI (LXFL 529 NSCLC): > 100 µM | TGI (M14 melanoma): > 100 µM | TGI (OVCAR-4 ovarian): > 100 µM | TGI (RXF 393 renal): > 100 µM | TGI (TK-10 renal): > 100 µM

Cn1c(-c2nonc2N)nc2cnccc21
GI50 (COLO 205 colon): > 25000 nM | TGI (COLO 205 colon): > 25 µM | GI50 (HOP-62 NSCLC): > 25000 nM | TGI (HOP-62 NSCLC): > 25 µM | GI50 (M14 melanoma): > 25000 nM | TGI (M14 melanoma): > 25 µM | GI50 (NCI/ADR-RES ovarian): > 25000 nM | TGI (NCI/ADR-RES ovarian): > 25 µM | GI50 (OVCAR-4 ovarian): > 25000 nM | TGI (OVCAR-4 ovarian): > 25 µM | GI50 (RXF 393 renal): > 20600 nM | TGI (RXF 393 renal): > 25 µM | GI50 (TK-10 renal): 11300 nM | TGI (TK-10 renal): > 25 µM

O=c1c(Cl)c(Cl)cnn1-c1ccccc1
GI50 (COLO 205 colon): 1740 nM and 3540 nM | TGI (COLO 205 colon): 3.62 µM and 7.92 µM | TGI (DMS 114 small cell lung): 5.76 µM and 3.09 µM | GI50 (DMS 273 small cell lung): 2.03 µM and 5.59 µM | TGI (DMS 273 small cell lung): 3.94 µM and 12.4 µM | TGI (HOP-62 NSCLC): 16.7 µM and 32.1 µM | TGI (LXFL 529 NSCLC): 11.9 µM and 3.13 µM | TGI (M14 melanoma): 3.25 µM and 3.42 µM | TGI (NCI/ADR-RES ovarian): 3.97 µM | TGI (OVCAR-4 ovarian): 3.95 µM and 2.38 µM | TGI (RXF 393 renal): 4.21 µM and 5.38 µM | TGI (TK-10 renal): 24.7 µM and 29.8 µM

CC1(C)N=C(N)N=C(N)N1c1ccc(CCCCc2ccc(S(=O)(=O)F)cc2Cl)c(Cl)c1
TGI (COLO 205 colon): 78 µM | TGI (DMS 114 small cell lung): 16.4 µM | TGI (HOP-62 NSCLC): 47.2 µM | TGI (M14 melanoma): > 382 µM | TGI (NCI/ADR-RES ovarian): 347 µM | TGI (OVCAR-4 ovarian): > 468 µM | TGI (RXF 393 renal): 187 µM | TGI (TK-10 renal): 231 µM

COc1ccccc1NC(=O)c1ccc(/C=C/C(=O)c2nccn2C)cc1
GI50 (COLO 205 colon): 552 nM | TGI (COLO 205 colon): 1.29 µM | GI50 (HOP-62 NSCLC): 762 nM | TGI (HOP-62 NSCLC): 2.37 µM | GI50 (M14 melanoma): 536 nM | TGI (M14 melanoma): 1.31 µM | GI50 (NCI/ADR-RES ovarian): 806 nM | TGI (NCI/ADR-RES ovarian): 9.77 µM | GI50 (OVCAR-4 ovarian): 740 nM | TGI (OVCAR-4 ovarian): 5.67 µM | GI50 (RXF 393 renal): 420 nM | TGI (RXF 393 renal): 0.857 µM | GI50 (TK-10 renal): 811 nM | TGI (TK-10 renal): 9.53 µM

N#Cc1cnn2ccn(C3OC(COC(=O)c4ccccc4)C(OC(=O)c4ccccc4)C3OC(=O)c3ccccc3)c12 (configuration not stated)
TGI (COLO 205 colon): > 21.5 µM | TGI (HOP-62 NSCLC): > 21.5 µM | TGI (M14 melanoma): > 21.5 µM | TGI (NCI/ADR-RES ovarian): > 21.5 µM | TGI (OVCAR-4 ovarian): > 21.5 µM | TGI (RXF 393 renal): > 21.5 µM | TGI (TK-10 renal): > 31.6 µM

CC[n+]1ccc2c(c1)C(=O)c1nccc3c1c-2nc1ccccc13
GI50 (COLO 205 colon): 1130 nM | TGI (COLO 205 colon): 5.22 µM | GI50 (HOP-62 NSCLC): 61.8 nM | TGI (HOP-62 NSCLC): 1.19 µM | GI50 (M14 melanoma): 943 nM | TGI (M14 melanoma): 4.38 µM | GI50 (NCI/ADR-RES ovarian): > 27700 nM | TGI (NCI/ADR-RES ovarian): > 33.3 µM | GI50 (OVCAR-4 ovarian): 941 nM | TGI (OVCAR-4 ovarian): 4.1 µM | GI50 (RXF 393 renal): 930 nM | TGI (RXF 393 renal): 3.68 µM | GI50 (TK-10 renal): 4770 nM | TGI (TK-10 renal): 16.8 µM

Cc1c(C(=O)/C=C/c2cccc3ccccc23)[n+](=O)c2ccccc2n1[O-]
TGI (COLO 205 colon): 26.9 µM | TGI (DMS 114 small cell lung): 16.8 µM | TGI (DMS 273 small cell lung): 24.5 µM | TGI (HOP-62 NSCLC): 29.6 µM | TGI (LXFL 529 NSCLC): 20.6 µM | TGI (M14 melanoma): 26.9 µM | TGI (OVCAR-4 ovarian): 15.7 µM | TGI (RXF 393 renal): 21.9 µM | TGI (TK-10 renal): 34.6 µM

COc1ccc(/C=C(/C(=O)O)c2cc(OC)c(OC)c(OC)c2)cc1
TGI (COLO 205 colon): > 100 µM | TGI (DMS 114 small cell lung): > 100 µM | TGI (DMS 273 small cell lung): > 100 µM | TGI (HOP-62 NSCLC): > 100 µM | TGI (LXFL 529 NSCLC): > 100 µM | TGI (M14 melanoma): 99.1 µM | TGI (OVCAR-4 ovarian): > 100 µM

CC1=CCCC(OC(N)=O)C1 (configuration not stated)
TGI (COLO 205 colon): > 100 µM | TGI (DMS 273 small cell lung): > 100 µM | TGI (HOP-62 NSCLC): > 100 µM | TGI (LXFL 529 NSCLC): > 100 µM | TGI (M14 melanoma): > 100 µM | TGI (OVCAR-4 ovarian): > 100 µM | TGI (RXF 393 renal): > 100 µM | TGI (TK-10 renal): > 100 µM

C/C(=N\NC(N)=S)c1ccc(C)cc1C
TGI (COLO 205 colon): > 100 µM | TGI (DMS 273 small cell lung): > 100 µM | TGI (HOP-62 NSCLC): > 100 µM | TGI (LXFL 529 NSCLC): > 100 µM | TGI (M14 melanoma): > 100 µM | TGI (OVCAR-4 ovarian): > 100 µM | TGI (RXF 393 renal): 75.2 µM | TGI (TK-10 renal): > 100 µM

OCCNCO
TGI (COLO 205 colon): > 100 µM | TGI (DMS 273 small cell lung): > 100 µM | TGI (HOP-62 NSCLC): > 100 µM | TGI (LXFL 529 NSCLC): > 100 µM | TGI (M14 melanoma): > 100 µM | TGI (OVCAR-4 ovarian): > 100 µM | TGI (RXF 393 renal): > 100 µM | TGI (TK-10 renal): > 100 µM

CNC(=O)c1cc(Oc2ccc3c(c2)sc2nc(-c4ccc(N)cc4)cn23)ccn1
GI50 (COLO 205 colon): 305 nM | TGI (COLO 205 colon): 27.2 µM | GI50 (HOP-62 NSCLC): 346 nM | TGI (HOP-62 NSCLC): > 100 µM | GI50 (M14 melanoma): 162 nM | TGI (M14 melanoma): > 100 µM | GI50 (NCI/ADR-RES ovarian): 211 nM | TGI (NCI/ADR-RES ovarian): > 100 µM | GI50 (OVCAR-4 ovarian): 2490 nM | TGI (OVCAR-4 ovarian): > 100 µM | GI50 (RXF 393 renal): 297 nM | TGI (RXF 393 renal): > 100 µM | GI50 (TK-10 renal): 278 nM | TGI (TK-10 renal): > 100 µM

C1CN2N3CCCC23C1 (configuration not stated)
TGI (COLO 205 colon): > 100 µM | TGI (DMS 114 small cell lung): > 100 µM | TGI (DMS 273 small cell lung): > 100 µM | TGI (HOP-62 NSCLC): > 100 µM | TGI (LXFL 529 NSCLC): > 100 µM | TGI (M14 melanoma): > 100 µM | TGI (OVCAR-4 ovarian): > 100 µM | TGI (RXF 393 renal): > 100 µM | TGI (TK-10 renal): > 100 µM

O=C1CC[C@H]2CNC(=O)C[C@H]2C1
TGI (COLO 205 colon): > 100 µM | TGI (DMS 273 small cell lung): > 100 µM | TGI (HOP-62 NSCLC): > 100 µM | TGI (LXFL 529 NSCLC): > 100 µM | TGI (M14 melanoma): > 100 µM | TGI (OVCAR-4 ovarian): > 100 µM | TGI (RXF 393 renal): > 100 µM | TGI (TK-10 renal): > 100 µM
